Source: US12208080B2, “Compositions and methods for modulation of extracellular vesicle release and treatment of neurological disorders” (GEORGE MASON RESEARCH FOUNDATION, INC., priority 2018, dated 2025)

Experiments:
[1] = tested on: HIV-1 infected primary macrophages; experiment: RT-qPCR of EV-associated viral RNA from HIV-1 infected primary macrophages; format: cell-based; settings: 1, 5, 10 uM
Description: FIGS. 11A-11B are graphs showing CBD lowers viral RNAs in EVs released from HIV-1 infected primary macrophages. Primary PBMCs were purchased (Precision For Medicine, Frederick, Md.) and cultured in vitro first with PMA/GM-CSF for 3 days to obtain macrophages, and were then infected with HIV-1 89.6 strain (MOI.1.0) for 12 days. The macrophages were treated with PMA and GM-CSF during the infection period (added every 3 days into the fresh media). On day 12, all cells were treated with cART (4 antivirals) and kept in culture for another 3 days. On day 15, media was removed and CBD was added for 5 days (1, 5, 10 μM; at 0 and 48 hours). Supernatants were then isolated and exosomes were enriched using NT80/82 beads overnight at 4° C. […]
To examine whether the same trend could be observed in a primary cell model, three independent HIV-1 infected primary macrophage cell cultures were treated with a titration of CBD (1, 5, and 10 uM). EVs were enriched from the extracellular supernatant using NT80/82 beads and analyzed for HIV-1 TAR and env (FIG. 11). […] To apply these findings to in vivo HIV-1 infection, total EVs were enriched from plasma samples from 15 individuals; 5 healthy donors, 5 HIV-1 positive donors, and 5 HIV-1 positive donors who used Cannabis, were trapped using NT80/82 particles and analyzed via Western blot for the presence of HIV-1 Nef protein.

[2] = tested on: HIV-1 89.6 infected 3D neurospheres; experiment: RT-qPCR of viral RNA transcripts in infected 3D neurospheres; format: cell-based
Description: FIGS. 22A-22D are graphs, gels, schematics, and images showing cannabidiol lowers viral transcripts in 3D neurospheres. A) Differential workflow of 3D neurospheres. B) Phase contrast microscopic images of three 3D neurospheres taken where scale bar=100 um. D) 3D neurospheres were treated±89.6 viral strain±cART (10 μM; Tenofovir, Emtricitabine, Lamuvidine, and Indinavir)±CBD titration (5 and 10 μM) and incubated for 7 days. RNA was isolated from the 3D neurospheres and supernatants, followed by RT-qPCR analysis for viral RNA transcripts TAR, TAR-gag, env. Student's t-test was used for statistical analysis, where *p-value≤0.05; **p-value≤0.01, ***p-value≤0.001.
Neural Progenitor Cells (NPCs; Cat: ACS-5003; ATCC) were grown using STEMdiff™ Neural Progenitor Medium (STEMCELL Technologies™) and differentiated into 3D neurospheres (1×10^5 cells/well) using DMEM:F12 (Cat: 30-2006; ATCC)+Neural Progenitor Cell Dopaminergic Differentiation Kit (Cat: ACS-3004; ATCC) for an incubation period of 14 d. Inverted microscopy using Zen imaging software (Zeiss) was used to develop phase contrast images. Neurospheres were infected with HIV-1 89.6 dual-tropic strain (MOI: 10) and 10 μL of Infectin™ (Virongy, LLC) with a total volume of 200 μL, followed by 48 h incubation period. Neurospheres were then gently washed with 1×PBS±treated twice with 10 μM cocktail (Lamivudine, Tenofovir, Emtricitabine, Indinavir)±treatment (every other day) with a titration of CBD (5 and 10 μM) for a seven-day incubation period. Neurospheres were lysed in 100 μL lysis buffer and total lysates were run on a 4-20% Tris-Glycine SDS-PAGE, followed by western blot assessment. For RT-qPCR analysis, RNA was isolated from neurospheres, followed by RT-qPCR analysis.
Next, the levels of intracellular viral RNA transcripts were assessed to determine the effects of CBD treatment on HIV-1 infected neurospheres. Prior to these experiments, the expression of relevant receptors in neurospheres were confirmed including Cannabinoid receptors CB1 and CB2, as well as the serotonin receptor 5-HT1A and the Vanilloid receptor which have been previously found to bind cannabinoids (FIG. 24). We then performed RT-qPCR analysis to quantify the expression of TAR, gag, and env.

[3] = CBD 10 μM with cART vs cART, 7 days, FIG. 22D lanes 3 vs 5

Question: How did the “TAR RNA within EVs” value ([1]; three primary macrophage cultures, FIG. 11A) turn out when `C=C(C)[C@@H]1CCC(C)=C[C@H]1c1c(O)cc(CCCCC)cc1O` [CBD, 2-[1R-3-methyl-6R-(1-methylethenyl)-2-cyclohexen-1-yl]-5-pentyl-1,3-benzenediol] was run?
Answer: Its value is “statistically significant decrease”.

Question: And the “env RNA in secreted EVs” value ([1]; two out of three infected primary macrophages, FIG. 11B)?
Answer: Its value is “statistically significant decreasing trend”.

Question: And the “TAR RNA” value [2, 3]?
Answer: Its value is “signification reduction”.

Question: And the “env RNA” value [2, 3]?
Answer: The value was “signification reduction”.

Question: What about the “gag RNA” value [2, 3] of the same compound?
Answer: Its value is “signification reduction”.

Question: And the “altering viral transcripts in neurospheres” value ([2]; lower concentrated CBD treatment (5 μM))?
Answer: The value was “low efficacy”.
